Laboratory results published in patent US8008312B2, “CXCR4 antagonists for the treatment of HIV infection” (Emory University, priority 2005, dated 2011).
pIC50: −log10 of the molar value. Where two headings read alike, the source gives them in different places.

Tests used:
[1] = test system: SHIV; assay: Phenoscreen viral entry inhibition assay, SHIV; assay type: cell-based
Method: (§1) A selected set of compounds were tested for their ability to inhibit the cellular entry of T-tropic HIV. The assay for this inhibition has been carried out on a contractural basis at Monogram Biosciences, Inc. using their well established Phenoscreen™ assay. Briefly, HIV strains of interest are tagged with a luciferase indicator gene to create an appropriate test vector. The test vector is amplified through transfection and the resulting virus is incubated in the presence of target host cells where intracellular florescence activity then becomes a measure of infection. Amplified virus is exposed to target host cells in the presence of a range of test drug concentrations to determine IC50 measurements of entry inhibition. A modification of this test has been further reapplied as a novel drug assay that has been used in partnership with a number of pharmaceutical companies to test the effectiveness of novel entry inhibitors that target specific chemokines. It can used to detect activity against T-tropic, M-tropic, and dual-tropic viruses and Monogram Biosciences has a large bank of over 10,000 different virus strains to ultimately asses the range of applicability of our CXCR4 antagonists. Certain compounds have been tested to establish efficacy in a number of viral strains.

[2] = test system: Vrs-2; assay: Phenoscreen viral entry inhibition assay, Vrs-2; assay type: cell-based, HIV; settings: Human immunodeficiency virus 1, read-out: Viral Entry Inhibition Vrs-2
Method: as §1

[3] = test system: HXB2; assay: Phenoscreen viral entry inhibition assay, HXB2; assay type: cell-based, HIV
Method: as §1

[4] = test system: Dual; assay: Phenoscreen viral entry inhibition assay, Dual; assay type: cell-based, HIV; settings: Human immunodeficiency virus 1, read-out: Viral Entry Inhibition Dual
Method: as §1

[5] = test system: Vrs-1; assay: Phenoscreen viral entry inhibition assay, Vrs-1; assay type: cell-based, HIV
Method: as §1

[6] = test system: NL4-3; assay: Phenoscreen viral entry inhibition assay, NL4-3; assay type: cell-based, HIV
Method: as §1

[7] = test system: Vrs-3; assay: Phenoscreen viral entry inhibition assay, Vrs-3; assay type: cell-based, HIV
Method: as §1

[8] = target: T1, CXCR4 (Homo sapiens, UniProt P61073); assay: Competition assay using biotin-labeled TN14003 on tumor cells; assay type: binding; settings: FIG. 5, cells pre-incubated with various concentrations; read-out: IC50 (biotin-labeled TN14003 detection of CXCR4 after pre-incubation)
Method: Biotin-labeled TN14003 was used to detect CXCR4 protein from the cells pre-incubated with various concentrations of WZZL811S.
Using biotin-labeled TN14003 along with streptavidin-conjugated rhodamine allowed a determination of the binding efficiency of these chemicals to the SDF-1 binding site of CXCR4 on tumor cells and compared it to AMD3100-SDF-1 interactions (FIG. 4). […] Cells were pre-incubated with different concentrations of AMD3100. […] Therefore, one of these compounds, WZZL811S, was selected to study its therapeutic potential based on potency and low toxicity to cells (FIG. 6).

[9] = test system: MDA-MB-231 cells; assay: Cell viability of MDA-MB-231 cells; assay type: cell-based; settings: even at 100 μM (the highest concentration tested)
[10] = Half-life in mice; settings: mouse, in vivo, read-out: t1/2 (min) in mice
[11] = target: T1, CXCR4; assay: Competition screening using the native CXCR4 ligand SDF-1; assay type: binding; settings: competition with SDF-1
[12] = target: T1, CXCR4; assay: SDF-1 stimulated phosphorylation of Akt in MDA-MB-231 cells; assay type: cell-based; settings: 100 ng/ml SDF-1, 30 minutes; FIG. 2
Method: FIG. 2 is an image of a western blot showing phosphorylation of Akt. Incubating MDA-MB-231 cells with 100 ng/ml of SDF-1 for 30 min stimulated phosphorylation of Akt. This activation was blocked with TN14003 or AMD3100 in a dose-dependent manner.
CXCR4/SDF-1 interaction activates PI3K/Akt and Ras/Raf/MEK/Erk pathways in a Gas protein (PTX-sensitive)-dependent manner. Experiments were conducted to determine the effect of blocking CXCR4/SDF-1 interaction by either TN14003 or AMD3100 at different concentrations (0, 0.01, 0.1, 1, 10, 100, 1000 nM) on phosphorylations of Akt and Erk1/2 signaling. Incubating cells with 100 ng/ml of SDF-1 for 30 minutes activated Akt. […] However, the increase in Erk1/2 phosphorylation by SDF-1 was not significant as the increase in Akt phosphorylation.

[13] = target: T1, CXCR4; assay: CXCR4 protein levels after treating cells; assay type: cell-based
[14] = target: T1, CXCR4; assay: SDF-1 stimulated Erk1/2 phosphorylation; assay type: cell-based; settings: SDF-1 stimulation; data not shown
Text: CXCR4/SDF-1 interaction activates PI3K/Akt and Ras/Raf/MEK/Erk pathways in a Gas protein (PTX-sensitive)-dependent manner.

[15] = test system: MT-4 cells; settings: cited from earlier work
[16] = Human immunodeficiency virus 1, HXB2, read-out: Viral Entry Inhibition HXB2
[17] = Human immunodeficiency virus 1, read-out: Viral Entry Inhibition Vrs-1
[18] = Human immunodeficiency virus 1, NL43, read-out: Viral Entry Inhibition NL4-3
[19] = Human immunodeficiency virus 1, read-out: Viral Entry Inhibition Vrs-3

T1 sequence (P61073 whole entry): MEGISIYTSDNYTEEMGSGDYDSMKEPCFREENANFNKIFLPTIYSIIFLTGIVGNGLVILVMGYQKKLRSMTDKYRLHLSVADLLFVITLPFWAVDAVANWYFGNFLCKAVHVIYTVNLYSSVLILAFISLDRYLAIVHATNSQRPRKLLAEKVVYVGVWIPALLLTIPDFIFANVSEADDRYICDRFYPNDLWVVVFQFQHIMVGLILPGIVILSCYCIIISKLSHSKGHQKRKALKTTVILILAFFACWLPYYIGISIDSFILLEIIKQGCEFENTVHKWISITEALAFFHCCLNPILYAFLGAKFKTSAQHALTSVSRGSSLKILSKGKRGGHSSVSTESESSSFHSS

Row | Molecule | pIC50 [1] | pIC50 [2] | pIC50 [3, 16] | pIC50 [4] | pIC50 [5, 17] | pIC50 [6, 18] | pIC50 [7, 19] | IC50 [11] [nM] | other results
1 | c1ccc(NCc2ccc(CNc3ccccc3)cc2)cc1 [WZ-81810] | ~4.92 | ~5.00 | < 4.82 | < 4.82 | < 4.82 | < 4.82 | < 4.82 |  | 
2 | c1ccc(NCc2ccc(CNc3ccccn3)cc2)nc1 [WZZL811S] | < 4.82 | ~4.92 | < 4.82 | < 4.82 | < 4.82 | < 4.82 | < 4.82 |  | pIC50 [8]: > 9.00; cell viability of MDA-MB-231 cells [9]: did not decrease cell viability
3 | c1cnc(NCc2ccc(CNc3ncccn3)cc2)nc1 [drawing 205] |  |  |  |  |  |  |  | < 10 | half-life [10]: 45 min
4 | OCc1ccc(CNc2ncccn2)cc1 [drawing 206] |  |  |  |  |  |  |  | < 10 | 
5 | COc1cccc(NCc2ccc(CNc3cccc(OC)c3)cc2)c1 [WZ-77] | 5.05 | ~4.96 | < 4.82 | < 4.82 | < 4.82 | ~4.85 | < 4.82 |  | 
6 | CC(Nc1ccccc1)c1ccc(C(C)Nc2ccccc2)cc1 (stereo not drawn) [WZ-8225] | ~5.00 | ~5.00 | ~4.96 | < 4.82 | ~4.96 | ~5.00 | ~5.00 |  | 
7 | c1cnc(NCc2ccc(CNc3ncccn3)cc2)nc1 [WZ-40-MS] | ~4.92 | ~5.00 | < 4.82 | < 4.82 | < 4.82 | < 4.82 | < 4.82 |  | 
8 | c1ccc(NCc2cccc(CNc3ccccc3)c2)cc1 [WZ-814-S] | < 4.82 | ~4.96 | ~4.82 | < 4.82 | ~4.96 | ~4.96 | ~4.96 |  | 
9 | COc1ccnc(NCc2ccc(CNc3nccc(OC)n3)cc2)n1 [drawing 215] |  |  |  |  |  |  |  | 10 | 
10 | c1ccc(CNCc2ccc(CNCc3ccccc3)cc2)cc1 [drawing 210] |  |  |  |  |  |  |  | < 100 | 
11 | COc1cccc(NCc2ccc(CNc3cccc(OC)c3)cc2)c1 [drawing 216] |  |  |  |  |  |  |  | 1 | half-life [10]: 14.3 min
12 | Cc1cc(CNc2ccccc2)c(C)cc1CNc1ccccc1 [WZ-9103] | 5.02 | ~4.82 | ~4.89 | < 4.82 | < 4.82 | ~4.96 | ~4.82 |  | 
13 | c1ccc(NCc2ccc(CNc3ncccn3)cc2)cc1 [WZ-67] | ~5.00 | ~4.96 | < 4.82 | < 4.82 | < 4.82 | ~4.96 | ~4.92 |  | 
14 | c1ccc(NCc2cccc(CNc3ccccc3)c2)cc1 [drawing 209] |  |  |  |  |  |  |  | < 10 | half-life [10]: < 5 min
15 | C1=CC(CN2CCCNCCNCCCNCC2)CC=C1CN1CCCNCCNCCCNCC1 (stereo not drawn) [AMD3100, reference compound] | 7.89 | 7.82 | 7.89 | 7.52 | 7.89 | 8.10 | 7.37 |  | concentration blocking Akt activation [12]: a few nano molar; effect on CXCR4 protein levels [13]: did not affect CXCR4 protein levels; concentration attenuating Erk1/2 phosphorylation [14]: 100 nM
16 | COc1ccnc(NCc2ccc(CNc3nccc(OC)n3)cc2)n1 [WZ-72-S] | 5.35 | ~4.92 | < 4.82 | < 4.82 | < 4.82 | ~4.82 | < 4.82 |  | 
17 | c1ccc(NCc2ccc(CNc3ncccn3)cc2)cc1 [drawing 214] |  |  |  |  |  |  |  |  | half-life [10]: 14 min
18 | Fc1ccccc1NCc1ccc(CNc2ccccc2F)cc1 [WZ-51] | 5.85 | ~5.00 | < 4.82 | ~4.92 | ~5.00 | ~4.92 | ~5.00 |  | 
19 | TN14003 [reference compound] |  |  |  |  |  |  |  |  | concentration leading to 50% toxicity [15]: 410 µM; concentration blocking Akt activation [12]: sub-nano molar concentration; effect on CXCR4 protein levels [13]: did not affect CXCR4 protein levels; pIC50 ([1]; SHIV): 8.15; pIC50 ([3]; HXB2 strain, read-out: Viral Entry Inhibition HXB2): 8.00; concentration attenuating Erk1/2 phosphorylation [14]: sub-nano molar concentration; pIC50 ([5]; Vrs-1 strain, read-out: Viral Entry Inhibition Vrs-1): 8.00; pIC50 ([6]; NL4-3 strain, read-out: Viral Entry Inhibition NL4-3): 8.30; pIC50 ([7]; Vrs-3 strain, read-out: Viral Entry Inhibition Vrs-3): 7.60
20 | c1ccc(NCc2ccc(CNc3ccccn3)cc2)nc1 [drawing 204] |  |  |  |  |  |  |  | < 10 | 
21 | OCc1ccc(CNc2ncccn2)cc1 [WZ-41] | ~4.82 | ~4.89 | < 4.82 | < 4.82 | < 4.82 | < 4.82 | < 4.82 |  | 
22 | c1ccc(NCc2cccc(CNc3ccccn3)c2)nc1 [WZ-48-S] | ~4.96 | ~4.96 | < 4.82 | < 4.82 | < 4.82 | < 4.82 | < 4.82 |  | 
23 | Fc1ccccc1NCc1ccc(CNc2ccccc2F)cc1 [drawing 213] |  |  |  |  |  |  |  | < 10 | 
24 | CC(Nc1ccccc1)c1ccc(C(C)Nc2ccccc2)cc1 (stereo not drawn) [drawing 211] |  |  |  |  |  |  |  | < 100 | half-life [10]: 13.7 min
25 | c1ccc(CNCc2ccc(CNCc3ccccc3)cc2)cc1 [WZ-8224] | 5.77 | 5.37 | 5.09 | 5.20 | 5.32 | 5.20 | 5.24 |  | 
26 | Cc1cc(CNc2ccccc2)c(C)cc1CNc1ccccc1 [drawing 212] |  |  |  |  |  |  |  | > 100 | 
27 | c1ccc(NCc2ccc(CNc3ccccc3)cc2)cc1 [drawing 208] |  |  |  |  |  |  |  | < 10 | half-life [10]: 11 min
